# Laboratory results taken from US8217045B2, “Organic compounds” (Novartis AG, priority 2007, dated 2012).
# Legend:
# c-Abl (His-cAbl) = target: T1, c-Abl (His-cAbl) (Homo sapiens, UniProt P00519); test: in vitro enzyme assay, wild-type Abl catalysed phosphorylation; type: biochemical; conditions: 16 nM His-cAbl, 10 μM ATP, 1 hour at 30° C.; read-out: IC50, inhibition of wild-type Abl catalysed phosphorylation
# T1 construct: The His-tagged kinase domain of Abl is cloned and expressed; His tag; made in house; host or cells: baculovirus/Sf9
# T1 sequence (P00519 242-493 limits assumed): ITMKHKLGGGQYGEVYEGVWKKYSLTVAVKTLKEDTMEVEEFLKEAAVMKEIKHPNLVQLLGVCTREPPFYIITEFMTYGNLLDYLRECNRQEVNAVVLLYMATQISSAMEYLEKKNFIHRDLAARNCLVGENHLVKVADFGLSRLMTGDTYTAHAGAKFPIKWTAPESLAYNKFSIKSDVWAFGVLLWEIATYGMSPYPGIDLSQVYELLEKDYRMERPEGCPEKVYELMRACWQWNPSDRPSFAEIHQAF
# Method: Test for activity against wild-type and mutant Abl protein tyrosine kinase:
# The test, an in vitro enzyme assay, is conducted as a filter binding assay as follows: The His-tagged kinase domain of Abl is cloned and expressed in the baculovirus/Sf9 system as described by Bhat et al., J. Biol. Chem. 1997; 272:16170-16175. A protein of 37 kD (Abl kinase) is purified by a two-step procedure over a Cobalt metal chelate column followed by an anion exchange column with a yield of 1-2 mg/L of Sf9 cells. The purity of the Abl kinase is >90% as judged by SDS-PAGE after Coomassie blue staining.
# Based on the optimized assay conditions for the individual kinases a specific assay set-up was chosen. The assays were prepared and incubated on a liquid handling robot system using 384-well plates. To the assay plates containing 50 nL compound or control solutions, 4.5 μL of solution A consisting of the peptide substrate and ATP in assay buffer were added. The reactions were initiated by adding 4.5 μL of solution B consisting of the respective kinase in assay buffer. The reactions were incubated for 1 hour at 30° C. in a final reaction volume of 9.05 μL. Based on a generic assay buffer (50 mM HEPES pH7.5, 1 mM DTT, 0.02% Tween20, 0.02% BSA), following components were added depending on the chosen kinase: • c-Abl: 16 nM His-cAbl, 5 μM peptide substrate (FITC-Ahx-EAIYAAPFAKKK-CONH2), 10 mM MgCl2, 10 μM ATP • c-Abl-T315I: 2.4 nM His-cAbl-T315I, 5 μM peptide substrate (FITC-Ahx-EAIYAAPFAKKK-CONH2), 10 mM MgCl2, 10 μM ATP
# After incubation, the kinase reactions were stopped by the addition of 16 μL of stop solution (100 mM HEPES, 5% DMSO, 0.1% Coating reagent, 10 mM EDTA, 0.015% Brij 35). Subsequently, the assay plates were transferred to a Caliper LabChip3000 reader and the unphosphorylated substrate and the phosphorylated product were separated and quantitated in a microfluidic chip.
# Bcr-Abl = Bcr-Abl (Homo sapiens, UniProt P00519); test: Bcr-Abl phosphorylation capture ELISA in 32D-Bcr-Abl cells; type: cell-based, murine; conditions: 90 min at 37° C., read-out: IC50, reduction of Bcr-Abl phosphorylation
# From the text: 32D cl3 cells are obtained from the American Type Culture Collection (ATCC CRL11346) and Ba/F3 cells are obtained from the German Collection of Microorganisms and Cell Cultures (DSMZ, Braunschweig and DSMZ No. ACC 300) Palacios et al., Nature, 1984; 309:126 and Palacios et al., Cell, 1985:41:72.
# Oncogene 1996; 12: 839-46; and Okuda K, Golub T R, Gilliland D G, Griffin J D. p210BCR-ABL, p190BCR-ABL, and TEL/ABL activate similar signal transduction pathways in hematopoietic cell lines. Oncogene 1996; 13:1147-52.)
# The cells express the fusion Bcr-Abl protein with a constitutively active Abl kinase and proliferate growth factor independent. The cells are expanded in RPMI 1640 (AMIMED), 10% fetal calf serum (FCS), 2 mM glutamine (Gibco) (“complete medium”), and a working stock is prepared by freezing aliquots of 2×10^6 cells per vial in freezing medium (95% FCS, 5% DMSO (SIGMA)). After thawing, the cells are used during maximally 10-12 passages for the experiments. The antibody anti-Abl SH3 domain cat. #06-466 from Upstate Biotechnology is used for the ELISA. For detection of Bcr-Abl phosphorylation, the anti-phosphotyrosine antibody Ab PY20, labelled with alkaline phosphatase ([…]) from ZYMED (cat. #03-7722) is used. […]
# Bcr-Abl, sequence (P00519 with tags, fused parts or gaps): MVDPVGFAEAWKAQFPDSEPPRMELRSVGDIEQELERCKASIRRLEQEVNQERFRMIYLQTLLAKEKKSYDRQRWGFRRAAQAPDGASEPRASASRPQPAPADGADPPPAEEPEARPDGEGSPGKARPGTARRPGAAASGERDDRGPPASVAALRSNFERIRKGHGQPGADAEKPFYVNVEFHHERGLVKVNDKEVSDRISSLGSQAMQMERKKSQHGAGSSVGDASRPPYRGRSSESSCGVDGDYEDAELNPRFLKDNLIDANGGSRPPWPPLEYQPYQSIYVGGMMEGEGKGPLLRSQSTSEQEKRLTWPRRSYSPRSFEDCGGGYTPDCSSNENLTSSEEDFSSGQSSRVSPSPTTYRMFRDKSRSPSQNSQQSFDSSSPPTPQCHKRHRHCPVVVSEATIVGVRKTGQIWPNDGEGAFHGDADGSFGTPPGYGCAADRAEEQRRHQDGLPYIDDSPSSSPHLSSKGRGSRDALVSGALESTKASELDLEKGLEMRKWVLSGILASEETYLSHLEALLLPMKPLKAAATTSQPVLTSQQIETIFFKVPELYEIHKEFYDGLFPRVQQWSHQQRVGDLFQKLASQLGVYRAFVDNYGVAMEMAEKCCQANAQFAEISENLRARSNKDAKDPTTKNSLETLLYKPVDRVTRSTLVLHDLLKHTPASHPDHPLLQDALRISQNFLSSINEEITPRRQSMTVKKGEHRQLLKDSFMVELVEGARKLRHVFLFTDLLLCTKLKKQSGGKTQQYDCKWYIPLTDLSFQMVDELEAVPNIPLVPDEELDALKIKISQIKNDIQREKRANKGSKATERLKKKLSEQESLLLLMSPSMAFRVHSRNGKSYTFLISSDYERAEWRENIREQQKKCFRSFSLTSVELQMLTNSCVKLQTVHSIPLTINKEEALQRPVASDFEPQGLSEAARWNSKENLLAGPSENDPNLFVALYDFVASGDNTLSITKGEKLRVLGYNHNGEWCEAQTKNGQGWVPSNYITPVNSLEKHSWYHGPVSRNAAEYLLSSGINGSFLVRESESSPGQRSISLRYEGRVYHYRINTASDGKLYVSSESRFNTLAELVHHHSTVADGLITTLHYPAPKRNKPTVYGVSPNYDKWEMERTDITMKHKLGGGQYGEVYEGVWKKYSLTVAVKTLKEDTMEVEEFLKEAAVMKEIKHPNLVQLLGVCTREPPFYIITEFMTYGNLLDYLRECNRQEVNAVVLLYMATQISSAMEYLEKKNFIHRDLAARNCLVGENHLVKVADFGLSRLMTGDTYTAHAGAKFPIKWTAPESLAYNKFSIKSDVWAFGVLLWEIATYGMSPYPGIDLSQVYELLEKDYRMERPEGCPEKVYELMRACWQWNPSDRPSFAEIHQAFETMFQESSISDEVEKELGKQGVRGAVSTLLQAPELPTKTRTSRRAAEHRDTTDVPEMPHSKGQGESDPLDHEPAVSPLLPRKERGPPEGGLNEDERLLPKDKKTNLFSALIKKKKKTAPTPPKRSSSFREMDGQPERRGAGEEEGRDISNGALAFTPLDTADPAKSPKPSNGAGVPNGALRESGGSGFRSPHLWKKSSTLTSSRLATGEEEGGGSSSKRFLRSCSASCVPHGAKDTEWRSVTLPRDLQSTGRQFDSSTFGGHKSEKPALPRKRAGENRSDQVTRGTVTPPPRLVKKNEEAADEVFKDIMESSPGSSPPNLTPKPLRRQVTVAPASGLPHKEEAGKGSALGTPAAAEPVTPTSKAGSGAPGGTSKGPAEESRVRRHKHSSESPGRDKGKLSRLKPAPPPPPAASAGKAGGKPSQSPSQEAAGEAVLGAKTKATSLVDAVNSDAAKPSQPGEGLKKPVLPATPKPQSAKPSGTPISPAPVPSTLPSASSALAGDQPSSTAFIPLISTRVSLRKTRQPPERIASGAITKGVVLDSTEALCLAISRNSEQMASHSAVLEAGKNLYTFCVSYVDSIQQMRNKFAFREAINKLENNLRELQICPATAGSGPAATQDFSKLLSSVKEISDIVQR
smiles,measurement,setting,value
"O=C(Nc1cc(N2CCNCC2)cc(C(F)(F)F)c1)c1cccc2cc(Oc3ccnc(NC(=O)C4CC4)c3)ccc12 [Example 10, 6-[[2-(Cyclopropanecarbonyl-amino)-pyridin-4-yl]oxy]-naphthalene-1-carboxylic acid (3-piperazin-1-yl-5-trifluoromethyl-phenyl)-amide]",IC50,c-Abl (His-cAbl),< 5 nM
same,IC50,Bcr-Abl,101 to 370 nM
